The results in this text go back to patent US20130165464A1, “HETEROARYLS AND USES THEREOF” (MILLENNIUM PHARMACEUTICALS, INC., priority 2011, published 2013).

In the assay the target is T1, VPS34 (Homo sapiens, UniProt Q8NEB9).
T1 construct: GST (N); host or cells: SF9 insect cells (baculovirus)
The assay is described as follows: Human VPS34 enzyme assay (Adapta TR-FRET). To be noted: for inhibition at 1.11 µM: 1 h, at a 1.11 μM concentration, read-out: VPS34 Percent Inhibition. Type of assay: biochemical. Here is the method:
VPS34 (accession number GB:BCO33004) was cloned into pDEST20-Thombin as N-terminal GST tagged fusion proteins using the Gateway system (Invitrogen, catalog#11804-013). The sequences were verified before recombinant protein expression using the Baculovirus Expression System with Gateway® Technology.
For expression VPS34 was infected at 1MOI in SF9 cells and harvested 72 hours post infection.
For purification, VPS34 is purified by Glutathione Sepharose 4 Fast Flow (GE Healthcare #17-5132-03) followed by HiTrap Q (GE Healthcare #17-1153-01).
Human VPS34 Enzyme Assay Method
100 nL compounds in DMSO are added to wells of a 384 well microtitre plate (Greiner 780076). At room temperature: 5 ul VPS34 reaction buffer (Invitrogen Assay Buffer Q (diluted 1 in 5 with nanopure water) plus 2 mM DTT and 2 mM MnCl2) containing ATP (20 uM, Promega) and 200 uM PI-PS substrate (Invitrogen PV5122) is added followed immediately by 5 ul VPS34 reaction buffer (as above) containing VPS34 (5 nM, Millennium Protein Sciences Group) and the mixture is incubated with shaking at room temperature for 1 hour. Then 5 ul VPS34 stop-detect mix (as per Invitrogen Adapta Assay kit (PV5009) instructions (contains kinase quench buffer, TR-FRET buffer, Adapta Eu anti-ADP antibody and Alexa Fluor 647 ADP tracer)) is added to quench the reaction. The plates are then incubated for 30 minutes at room temperature with shaking and then read on a BMG PheraStar Plus reader.
For the assay methods described above, test compound percent inhibition, at various concentrations, is calculated relative to control (DMSO and EDTA) treated samples. Compound concentration versus percent inhibition curves are fitted to generate IC50 values. One skilled in the art will appreciate that the values generated either as percentage inhibition at a single concentration or IC50 values are subject to experimental variation.
A general note: Time-resolved FRET reads energy transfer from a long-lived donor to a nearby acceptor.

The inhibition is the change of the read-out against control, counted positive when it falls. Broadly, the IC50 is the concentration needed to halve the response being measured.

T1 sequence (Q8NEB9 whole entry): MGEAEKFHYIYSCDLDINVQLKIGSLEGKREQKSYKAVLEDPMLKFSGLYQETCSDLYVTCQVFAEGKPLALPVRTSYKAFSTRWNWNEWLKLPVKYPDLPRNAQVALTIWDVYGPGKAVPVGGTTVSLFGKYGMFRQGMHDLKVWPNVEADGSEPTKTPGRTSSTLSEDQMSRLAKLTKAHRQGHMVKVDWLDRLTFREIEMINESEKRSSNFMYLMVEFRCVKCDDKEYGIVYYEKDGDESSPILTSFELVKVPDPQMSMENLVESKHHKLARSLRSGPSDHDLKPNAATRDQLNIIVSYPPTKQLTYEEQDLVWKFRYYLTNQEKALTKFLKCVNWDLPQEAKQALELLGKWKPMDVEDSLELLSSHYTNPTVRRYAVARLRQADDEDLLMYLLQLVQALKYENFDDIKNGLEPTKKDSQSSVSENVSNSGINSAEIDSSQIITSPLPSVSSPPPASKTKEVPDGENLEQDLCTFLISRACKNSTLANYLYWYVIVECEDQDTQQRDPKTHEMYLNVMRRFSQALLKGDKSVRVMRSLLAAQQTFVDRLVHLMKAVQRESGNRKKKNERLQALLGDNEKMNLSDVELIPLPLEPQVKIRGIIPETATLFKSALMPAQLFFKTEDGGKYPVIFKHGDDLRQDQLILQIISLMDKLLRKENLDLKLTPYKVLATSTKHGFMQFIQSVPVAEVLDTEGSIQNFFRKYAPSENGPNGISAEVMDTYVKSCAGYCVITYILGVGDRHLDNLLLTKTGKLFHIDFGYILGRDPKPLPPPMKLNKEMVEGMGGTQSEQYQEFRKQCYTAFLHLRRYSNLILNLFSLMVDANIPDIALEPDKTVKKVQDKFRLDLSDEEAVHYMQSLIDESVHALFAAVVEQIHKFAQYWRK

Consider `COC(=O)Nc1cc(-n2cc(-c3nc[nH]n3)c(-c3cc(CN4CCCC4)ccc3Cl)n2)c(C)cn1` [I-61, methyl (4-{3-[2-chloro-5-(pyrrolidin-1-ylmethyl)phenyl]-4-(1H-1,2,4-triazol-3-yl)-1H-pyrazol-1-yl}-5-methylpyridin-2-yl)carbamate], for which the inhibition at 1.11 µM is above 99%.
With `CC(=O)Nc1cc(-n2cc(-c3nnc[nH]3)c(I)n2)c(C)cn1` [I-62, N-{4-[3-iodo-4-(1H-1,2,4-triazol-3-yl)-1H-pyrazol-1-yl]-5-methylpyridin-2-yl}acetamide], the IC50 fell in the range of 150 to 1000 nM and the inhibition at 1.11 µM worked out at 59%.
Consider `Cc1cnc(NC(=O)C2CC2)cc1-n1cc(CO)c(-c2ccccc2Cl)n1` [I-63, N-{4-[3-(2-chlorophenyl)-4-(hydroxymethyl)-1H-pyrazol-1-yl]-5-methylpyridin-2-yl}cyclopropanecarboxamide], for which the IC50 was 150 to 1000 nM and the inhibition at 1.11 µM was 62%.
In the case of `COC(=O)Nc1cc(-n2cc(-c3ncc[nH]3)c(-c3ccccc3Cl)n2)c(C)cn1` [I-64, methyl {4-[3-(2-chlorophenyl)-4-(1H-imidazol-2-yl)-1H-pyrazol-1-yl]-5-methylpyridin-2-yl}carbamate], the IC50 is below 50 nM and the inhibition at 1.11 µM was above 99%.
Consider `CC(=O)Nc1cc(-n2cc(-c3nc[nH]n3)c(-c3ccc(F)cc3Cl)n2)c(C)cn1` [I-65, N-{4-[3-(2-chloro-4-fluorophenyl)-4-(1H-1,2,4-triazol-3-yl)-1H-pyrazol-1-yl]-5-methylpyridin-2-yl}acetamide], for which the inhibition at 1.11 µM was above 99%.
For the compound `CC(=O)Nc1cc(-n2cc(-c3nc[nH]n3)c(-c3ccc(C(F)(F)F)cc3Cl)n2)c(C)cn1` [I-66, N-(4-{3-[2-chloro-4-(trifluoromethyl)phenyl]-4-(1H-1,2,4-triazol-3-yl)-1H-pyrazol-1-yl}-5-methylpyridin-2-yl)acetamide], the IC50 was 150 to 1000 nM and the inhibition at 1.11 µM worked out at 89%.
`Cc1cnc(NC(=O)C2CC2)cc1-n1cc(-c2nc[nH]n2)c(-c2ccc(Cl)cc2Cl)n1` [I-67, N-{4-[3-(2,4-dichlorophenyl)-4-(1H-1,2,4-triazol-3-yl)-1H-pyrazol-1-yl]-5-methylpyridin-2-yl}cyclopropanecarboxamide]: the inhibition at 1.11 µM is above 99%.
Same read-out and setting: to `CCOc1ccc(-c2nn(-c3cc(NC(C)=O)ncc3C)cc2-c2nc[nH]n2)c(Cl)c1` [I-68, N-{4-[3-(2-chloro-4-ethoxyphenyl)-4-(1H-1,2,4-triazol-3-yl)-1H-pyrazol-1-yl]-5-methylpyridin-2-yl}acetamide] belongs above 99%; to `CC(=O)Nc1cc(-n2cc(-c3nc[nH]n3)c(-c3ccccc3C)n2)c(C)cn1` [I-69, N-{5-methyl-4-[3-(2-methylphenyl)-4-(1H-1,2,4-triazol-3-yl)-1H-pyrazol-1-yl]pyridin-2-yl}acetamide], above 99%.
In the case of `CC(=O)Nc1cc(-n2cc(C(N)=O)c(-c3cc(CN(C)C)ccc3Cl)c2)c(C)cn1` [I-70, 1-(2-acetamido-5-methylpyridin-4-yl)-4-{2-chloro-5-[(dimethylamino)methyl]phenyl}-1H-pyrrole-3-carboxamide], the IC50 fell in the range of 1000 to 5000 nM and the inhibition at 1.11 µM worked out at 20%.
On the same counts, the results for `Cc1cnc(NC(=O)C2CC2)cc1-n1cc(C(N)=O)c(-c2cc(CN3CCCC3)ccc2Cl)c1` [I-71, 4-[2-chloro-5-(pyrrolidin-1-ylmethyl)phenyl]-1-{2-[(cyclopropylcarbonyl)amino]-5-methylpyridin-4-yl}-1H-pyrrole-3-carboxamide] are 150 to 1000 nM and above 99%.
On the same counts, the results for `Cc1cnc(NC(=O)OC2CCCCC2)cc1-n1cc(C(N)=O)c(-c2ccccc2Cl)c1` [I-72, cyclohexyl {4-[3-carbamoyl-4-(2-chlorophenyl)-1H-pyrrol-1-yl]-5-methylpyridin-2-yl}carbamate] are 150 to 1000 nM and 71%.
Turning to `Cc1cnc(NC(=O)OC2CCCCC2)cc1-n1cc(-c2nc[nH]n2)c(-c2ccccc2Cl)c1` [I-73, cyclohexyl {4-[3-(2-chlorophenyl)-4-(1H-1,2,4-triazol-3-yl)-1H-pyrrol-1-yl]-5-methylpyridin-2-yl}carbamate], the inhibition at 1.11 µM is above 99%.
Turning to `COCCC(=O)Nc1cc(-n2cc(-c3nc[nH]n3)c(-c3ccccc3Cl)c2)c(C)cn1` [I-74, N-{4-[3-(2-chlorophenyl)-4-(1H-1,2,4-triazol-3-yl)-1H-pyrrol-1-yl]-5-methylpyridin-2-yl}-3-methoxypropanamide], the inhibition at 1.11 µM is above 99%.
Consider `Cc1cnc(N)cc1-n1cc(C(N)=O)c(-c2cc(CN3CCCC3)ccc2Cl)c1` [I-75, 1-(2-amino-5-methylpyridin-4-yl)-4-[2-chloro-5-(pyrrolidin-1-ylmethyl)phenyl]-1H-pyrrole-3-carboxamide], for which the IC50 lay within 1000 to 5000 nM and the inhibition at 1.11 µM amounted to 15%.
On the same counts, the results for `CC(=O)Nc1cc(-n2cc(-c3nc[nH]n3)c(-c3cc(CN(C)C)ccc3Cl)c2)c(C)cn1` [I-76, N-{4-[3-{2-chloro-5-[(dimethylamino)methyl]phenyl}-4-(1H-1,2,4-triazol-3-yl)-1H-pyrrol-1-yl]-5-methylpyridin-2-yl}acetamide] are 1000 to 5000 nM and 23%.
As to `CC(=O)Nc1cc(-n2cc(C(N)=O)c(-c3cc(CN4CCCC4)ccc3Cl)c2)c(C)cn1` [I-77, 1-(2-acetamido-5-methylpyridin-4-yl)-4-[2-chloro-5-(pyrrolidin-1-ylmethyl)phenyl]-1H-pyrrole-3-carboxamide], the inhibition at 1.11 µM is 79%.
For `COCCOC(=O)Nc1cc(-n2cc(-c3nc[nH]n3)c(-c3ccccc3Cl)c2)c(C)cn1` [I-78, 2-methoxyethyl {4-[3-(2-chlorophenyl)-4-(1H-1,2,4-triazol-3-yl)-1H-pyrrol-1-yl]-5-methylpyridin-2-yl}carbamate], the IC50 is below 50 nM and the inhibition at 1.11 µM was above 99%.
Turning to `COCCC(=O)Nc1cc(-n2cc(C(N)=O)c(-c3ccccc3Cl)c2)c(C)cn1` [I-79, 4-(2-chlorophenyl)-1-{2-[(3-methoxypropanoyl)amino]-5-methylpyridin-4-yl}-1H-pyrrole-3-carboxamide], the inhibition at 1.11 µM is above 99%.
On the same count and under the same terms, to `COC(=O)Nc1cc(-n2cc(C(N)=O)c(-c3cc(CN4CCCC4)ccc3Cl)c2)c(C)cn1` [I-80, methyl (4-{3-carbamoyl-4-[2-chloro-5-(pyrrolidin-1-ylmethyl)phenyl]-1H-pyrrol-1-yl}-5-methylpyridin-2-yl)carbamate] belongs above 99%.
Take `Cc1cnc(NC(=O)OCCF)cc1-n1cc(-c2nc[nH]n2)c(-c2ccccc2Cl)c1` [I-81, 2-fluoroethyl {4-[3-(2-chlorophenyl)-4-(1H-1,2,4-triazol-3-yl)-1H-pyrrol-1-yl]-5-methylpyridin-2-yl}carbamate]: the IC50 was below 50 nM and the inhibition at 1.11 µM was above 99%.
For the compound `Cc1cnc(NC(=O)C2CC2)cc1-n1cc(-c2ncc[nH]2)c(-c2ccccc2Cl)c1` [I-82, N-{4-[3-(2-chlorophenyl)-4-(1H-imidazol-2-yl)-1H-pyrrol-1-yl]-5-methylpyridin-2-yl}cyclopropanecarboxamide], the inhibition at 1.11 µM is above 99%.
The same measure, in the same setting: the same measure for `Cc1cnc(NC(=O)OCCF)cc1-n1cc(C(N)=O)c(-c2ccccc2Cl)c1` [I-83, 2-fluoroethyl {4-[3-carbamoyl-4-(2-chlorophenyl)-1H-pyrrol-1-yl]-5-methylpyridin-2-yl}carbamate]: above 99%.
As for `Cc1cnc(NC(=O)C2CC2)cc1-n1cc(-c2nc[nH]n2)c(-c2cc(CN3CCCC3)ccc2Cl)c1` [I-84, N-(4-{3-[2-chloro-5-(pyrrolidin-1-ylmethyl)phenyl]-4-(1H-1,2,4-triazol-3-yl)-1H-pyrrol-1-yl}-5-methylpyridin-2-yl)cyclopropanecarboxamide], the IC50 is below 50 nM and the inhibition at 1.11 µM is above 99%.
Turning to `CC(=O)Nc1cc(-n2cc(CO)c(-c3ccccc3Cl)c2)c(C)cn1` [I-85, N-{4-[3-(2-chlorophenyl)-4-(hydroxymethyl)-1H-pyrrol-1-yl]-5-methylpyridin-2-yl}acetamide], the half-maximal inhibitory concentration (IC50) is 150 to 1000 nM and the inhibition at 1.11 µM came out at 93%.
Take `CC(=O)Nc1cc(-n2cc(-c3ncn[nH]3)c(-c3ccnc(Cl)c3)n2)c(C)cn1` [I-106, N-{4-[3-(2-chloropyridin-4-yl)-4-(1H-1,2,4-triazol-5-yl)-1H-pyrazol-1-yl]-5-methylpyridin-2-yl}acetamide]: the concentration for half-maximal inhibition (IC50) lay in the range of 150 to 1000 nM and the inhibition at 1.11 µM worked out at 54%.
On to `CC(=O)Nc1cc(-n2cc(-c3cccc(N)n3)c(-c3ccccc3Cl)n2)c(C)cn1` [I-107, N-{4-[4-(6-aminopyridin-2-yl)-3-(2-chlorophenyl)-1H-pyrazol-1-yl]-5-methylpyridin-2-yl}acetamide], for which the IC50 fell in the range of 150 to 1000 nM and the inhibition at 1.11 µM is 54%.
